According to BindingDB's records for doi:10.1016/j.bmcl.2006.02.011 (Zhengzhou University, 2006):

Molecular target: Maltase-glucoamylase (Homo sapiens, UniProt O43451)
Test: Inhibition of alpha glucosidase

Sequence of Maltase-glucoamylase (O43451 whole entry): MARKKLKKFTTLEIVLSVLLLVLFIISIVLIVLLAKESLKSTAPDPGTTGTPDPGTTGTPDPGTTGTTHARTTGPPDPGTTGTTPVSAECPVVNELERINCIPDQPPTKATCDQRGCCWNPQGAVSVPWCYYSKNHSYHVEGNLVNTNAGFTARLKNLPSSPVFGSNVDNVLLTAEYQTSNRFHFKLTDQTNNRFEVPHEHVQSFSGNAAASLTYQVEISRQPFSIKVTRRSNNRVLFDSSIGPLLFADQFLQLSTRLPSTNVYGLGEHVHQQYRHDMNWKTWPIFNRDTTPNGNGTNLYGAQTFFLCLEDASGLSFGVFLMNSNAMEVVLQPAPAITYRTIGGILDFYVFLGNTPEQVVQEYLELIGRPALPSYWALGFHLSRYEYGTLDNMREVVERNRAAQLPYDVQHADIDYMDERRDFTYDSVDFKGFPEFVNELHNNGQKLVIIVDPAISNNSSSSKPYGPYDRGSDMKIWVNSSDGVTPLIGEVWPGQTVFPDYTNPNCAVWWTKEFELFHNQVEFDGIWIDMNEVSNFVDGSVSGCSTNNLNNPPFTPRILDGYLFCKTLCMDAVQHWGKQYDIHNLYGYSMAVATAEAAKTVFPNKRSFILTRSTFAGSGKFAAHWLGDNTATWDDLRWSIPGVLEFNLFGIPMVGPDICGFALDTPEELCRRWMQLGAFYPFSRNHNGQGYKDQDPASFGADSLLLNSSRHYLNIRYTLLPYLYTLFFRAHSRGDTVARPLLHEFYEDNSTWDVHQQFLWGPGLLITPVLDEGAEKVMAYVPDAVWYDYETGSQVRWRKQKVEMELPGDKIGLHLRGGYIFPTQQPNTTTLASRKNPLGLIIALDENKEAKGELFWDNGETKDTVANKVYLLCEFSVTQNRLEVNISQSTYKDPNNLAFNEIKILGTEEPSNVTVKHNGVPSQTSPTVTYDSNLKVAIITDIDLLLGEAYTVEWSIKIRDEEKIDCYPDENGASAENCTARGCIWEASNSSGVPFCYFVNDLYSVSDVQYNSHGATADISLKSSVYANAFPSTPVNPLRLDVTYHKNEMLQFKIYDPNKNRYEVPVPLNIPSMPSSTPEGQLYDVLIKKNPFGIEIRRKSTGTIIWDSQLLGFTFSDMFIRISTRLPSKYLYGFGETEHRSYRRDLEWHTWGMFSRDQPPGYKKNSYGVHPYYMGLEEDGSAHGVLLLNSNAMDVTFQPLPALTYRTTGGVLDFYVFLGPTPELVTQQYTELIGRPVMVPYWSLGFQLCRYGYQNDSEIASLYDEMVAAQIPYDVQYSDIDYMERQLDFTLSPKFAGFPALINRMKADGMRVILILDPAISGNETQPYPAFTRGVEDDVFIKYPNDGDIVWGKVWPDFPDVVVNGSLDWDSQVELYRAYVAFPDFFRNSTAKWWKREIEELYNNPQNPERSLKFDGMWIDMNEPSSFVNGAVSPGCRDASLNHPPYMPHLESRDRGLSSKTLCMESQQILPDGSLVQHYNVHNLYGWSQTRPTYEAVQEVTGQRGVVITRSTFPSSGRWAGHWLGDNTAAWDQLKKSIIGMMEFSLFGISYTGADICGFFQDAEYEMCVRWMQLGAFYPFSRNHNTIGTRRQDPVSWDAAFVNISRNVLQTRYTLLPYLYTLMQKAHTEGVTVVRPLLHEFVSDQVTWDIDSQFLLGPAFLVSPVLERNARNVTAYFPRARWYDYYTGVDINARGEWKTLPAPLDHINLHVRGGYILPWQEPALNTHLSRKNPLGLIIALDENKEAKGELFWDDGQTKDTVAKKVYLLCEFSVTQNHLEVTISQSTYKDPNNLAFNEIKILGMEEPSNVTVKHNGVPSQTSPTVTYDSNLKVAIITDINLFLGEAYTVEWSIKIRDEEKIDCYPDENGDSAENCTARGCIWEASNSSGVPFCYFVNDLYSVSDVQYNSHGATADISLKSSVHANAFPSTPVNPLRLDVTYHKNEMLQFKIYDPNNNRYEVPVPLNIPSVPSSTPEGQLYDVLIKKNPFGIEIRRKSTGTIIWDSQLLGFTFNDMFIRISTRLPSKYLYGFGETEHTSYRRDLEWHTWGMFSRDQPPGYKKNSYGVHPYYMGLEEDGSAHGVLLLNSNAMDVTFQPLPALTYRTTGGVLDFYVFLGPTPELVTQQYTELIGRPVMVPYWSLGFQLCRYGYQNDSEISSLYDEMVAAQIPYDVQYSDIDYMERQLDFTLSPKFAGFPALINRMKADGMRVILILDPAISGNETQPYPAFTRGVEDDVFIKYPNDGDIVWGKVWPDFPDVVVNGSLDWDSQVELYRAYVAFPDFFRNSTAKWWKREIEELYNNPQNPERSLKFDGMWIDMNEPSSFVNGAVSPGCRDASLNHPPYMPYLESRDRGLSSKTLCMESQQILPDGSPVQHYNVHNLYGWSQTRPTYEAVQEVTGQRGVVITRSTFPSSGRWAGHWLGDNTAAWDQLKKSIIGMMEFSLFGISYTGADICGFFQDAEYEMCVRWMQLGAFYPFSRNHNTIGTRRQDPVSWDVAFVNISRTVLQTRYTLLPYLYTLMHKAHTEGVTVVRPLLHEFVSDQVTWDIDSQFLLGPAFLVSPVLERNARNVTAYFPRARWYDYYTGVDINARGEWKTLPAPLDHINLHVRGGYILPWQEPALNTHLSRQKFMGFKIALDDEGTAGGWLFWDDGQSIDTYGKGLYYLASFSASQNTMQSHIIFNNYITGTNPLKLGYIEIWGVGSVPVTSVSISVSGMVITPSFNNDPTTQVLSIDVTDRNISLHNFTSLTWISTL

Structure (SMILES): C=C1CC[C@@H]2[C@](C)(CO)[C@H](O)CC[C@@]2(C)[C@@H]1/C=C/C1=CC(=C/C=C/c2ccccc2)/OC1=O [3-(2-((1R,4aS,5R,6R,8aR)-6-hydroxy-5-(hydroxymethyl)-5,8a-dimethyl-2-methylene-decahydronaphthalen-1-yl)vinyl)-5-(3-phenylallylidene)furan-2(5H)-one]
- IC50: 58 µM

Structure (SMILES): C[C@]1(CO)[C@H]2CC[C@@]3(CO3)[C@@H](/C=C/C3=CC(=C/C=C/c4ccccc4)/OC3=O)[C@]2(C)CC[C@H]1O [(5Z)-3-[(E)-2-[(1S,2S,4aS,5R,6R,8aR)-6-hydroxy-5-(hydroxymethyl)-5,8a-dimethyl-octahydro-1H-spiro[naphthalene-2,2'-oxirane]-1-yl]ethenyl]-5-[(2E)-3-phenylprop-2-en-1-ylidene]-2,5-dihydrofuran-2-one]
- IC50: 101 µM

Structure (SMILES): COc1ccc(/C=C2C=C(/C=C/[C@@H]3[C@@]4(CC[C@@H]5[C@](C)(CO)[C@H](O)CC[C@]53C)CO4)C(=O)O/2)cc1 [(5Z)-3-[(E)-2-[(1S,2S,4aS,5R,6R,8aR)-6-hydroxy-5-(hydroxymethyl)-5,8a-dimethyl-octahydro-1H-spiro[naphthalene-2,2'-oxirane]-1-yl]ethenyl]-5-[(4-methoxyphenyl)methylidene]-2,5-dihydrofuran-2-one]
- IC50: 120 µM

Structure (SMILES): C=C1CC[C@@H]2[C@]3(C)COC(c4cccc(Br)c4)O[C@@H]3CC[C@@]2(C)[C@@H]1C/C=C1/C(=O)OC[C@H]1O (stereo partly drawn) [(S)-3-(2-((4aR,6aS,7R,10aS,10bR)-3-(3-bromophenyl)-6a,10b-dimethyl-8-methylene-decahydro-1H-naphtho[2,1-d][1,3]dioxin-7-yl)ethylidene)-4-hydroxy-dihydrofuran-2(3H)-one]
- IC50: 100 µM

Structure (SMILES): C=C1CC[C@@H]2[C@](C)(CO)[C@H](O)CC[C@@]2(C)[C@@H]1/C=C/C1=CC(=C/CCC)/OC1=O [5-butylidene-3-(2-((1R,4aS,5R,6R,8aR)-6-hydroxy-5-(hydroxymethyl)-5,8a-dimethyl-2-methylene-decahydronaphthalen-1-yl)vinyl)furan-2(5H)-one]
- IC50: 110 µM

Structure (SMILES): C=C1CC[C@@H]2[C@]3(C)COC(c4ccccc4)O[C@@H]3CC[C@@]2(C)[C@@H]1C/C=C1/C(=O)OC[C@H]1O (stereo partly drawn) [(S)-3-(2-((4aR,6aS,7R,10aS,10bR)-6a,10b-dimethyl-8-methylene-3-phenyl-decahydro-1H-naphtho[2,1-d][1,3]dioxin-7-yl)ethylidene)-4-hydroxy-dihydrofuran-2(3H)-one]
- IC50: 101 µM
